Several values for one entry are separate records, joined by “and”; a condition that tells them apart may be missing. Equal values may be shown once. Read-outs that look alike come from different tables or passages of the source.
Assay: Dasatinib single oral gavage plasma pharmacokinetics (NLME modeling)
Assay type: in vivo, mouse
Design: DV (dasatinib plasma concentration): unit: ng/mL
Details: for CL/F: both sexes, po, read-out: Cl_pop (apparent oral clearance) (converted); for CL/F / concentration at 0.5 h / concentration at 1 h / concentration at 2 h / concentration at 8 h / concentration at 16 h / concentration at […] / concentration at 4 h / concentration at 24 h: C57BL/6, mouse, plasma, 10 mg/kg; for concentration at 0.5 h / concentration at 1 h / concentration at 2 h / concentration at 8 h / concentration at 16 h / concentration at […] / concentration at 4 h / concentration at 24 h: oral, read-out: DV (dasatinib plasma concentration)
Method: Dasatinib was dissolved in 80 mMol/L sodium citrate buffer pH 3.1 for a total dasatinib concentration of 1 mg/mL and a 10 mL/kg gavage volume. Mice were grouped by VD3 status and sex and studied at 8 and 10 weeks of age. […] Saphenous and submandibular bleeds of mice using a single-use Sarstedt Minivette POCT 50 μL K3 EDTA capillary device are humane methods for obtaining small volumes of blood over multiple time points, preferrable to retroorbital bleeds, and were approved for this study that required blood sampling at multiple time points (three) after dasatinib administration. Each mouse was sampled three times on two separate dasatinib dosing occasions. Blood was collected into the Minivette capillary device, dispensed into a microtube and vortexed to mix the anticoagulant. The tubes were then immediately centrifuged to plasma and stored on dry ice for the remainder of the study. At the end of the in vivo procedures, plasma samples were transferred from dry ice and placed at -80°C until analysis.
Total plasma dasatinib concentrations were assessed using a sensitive and specific liquid chromatography, tandem mass spectrometry (LC-MS/MS) assay. Dasatinib stock solutions were prepared in acetonitrile and used to spike matrix calibrators and quality controls. Protein precipitation was performed using a 1:4 ratio of plasma to 15 ng/mL erlotinib HCl (St. Jude Compound Management, S00004053, Inventory ID: SJCH0042996, Purity > 95%) in methanol as an internal standard. A 3μL aliquot of the extracted supernatant was injected onto a Shimadzu LC-20ADXR high performance liquid chromatography system via a LEAP CTC PAL autosampler. The LC separation was performed using a Phenomenex Kinetex 2.6 um EVO C18 (100A, 50 x 2.1 mm) maintained at 50°C with gradient elution at a flow rate of 0.5 mL/min. The binary mobile phase gradient began with a linear increase to 100% B in 4.0 minutes. The column was then rinsed for 2.0 minutes at 100% B and then equilibrated at the initial conditions for two minutes for a total run time of eight minutes.
Analyte and IS were detected with tandem mass spectrometry using a SCIEX API 5500 Q-TRAP in the positive ESI mode with monitoring of the following mass transitions: Dasatinib 488.20 -> 401.00, erlotinib HCl 394.20 -> 250.10.
The experimental bioanalytical runs were all found to be acceptable for the purpose of a singlicate non-GLP, preclinical PK assessment. A linear model (1/X^2 weighting) fit the calibrators across the 1.00 to 500 ng/mL range, with a correlation coefficient (R) of […]. The lower limit of quantification (LLOQ), defined as a peak area signal-to-noise ratio of 5 or greater verses a matric blank with IS, was 1.00 ng/mL.
§ To evaluate the plasma pharmacokinetics (PK) of dasatinib af t er two separate single oral gavage doses of solution, separated by a washout period, in normal C57BL/6 mice […]
vs 10wk) on the plasma PK of oral dasatinib us ing a nonlinear mixed effects (NLME) PK modeling […]
2. 1 In Vivo Pharmacokinetic (PK) Study
The total plasma PK of dasatinib in C57BL/6 mice (The Jackson Laboratory) was assessed after single oral gavages of 10 mg/kg of dasatinib free base equivalents. Dasatinib (St. Jude Compound […]
sodium citrate buffer pH 3.1 for a final dasatinib concentration of 1 mg/mL for a 10 mL/kg gavage volume.
Mice were grouped by Vitamin D dietary sufficiency status and sex, and studied at 8 and 10 weeks of age. Survival saphenous and facial vein bleeding of mice was conducted using IACUC-approved […]
was sampled 3 times on the 2 separate occasions of dasatinib dosing. […] The tubes were then immediately centrifuged to plasma, and stored on dry ice for […]

Compound: Cc1nc(Nc2ncc(C(=O)Nc3c(C)cccc3Cl)s2)cc(N2CCN(CCO)CC2)n1 [dasatinib]
- DV (dasatinib plasma concentration) (GROUP:VD3 Suf, SEX:M, OCC 2, time 0.25): 101.99 and 116.5
- DV (dasatinib plasma concentration) (GROUP:VD3 Suf, SEX:M, OCC 2, time 0.5): 207.19 and 212.25
- DV (dasatinib plasma concentration) (GROUP:VD3 Suf, SEX:M, OCC 2, time 2): 297.27 and 320.75
- DV (dasatinib plasma concentration) (GROUP:VD3 Suf, SEX:M, OCC 2, time 8): 10.361 and 16.431
- DV (dasatinib plasma concentration) (GROUP:VD3 Suf, SEX:M, OCC 2, time 24): 3.3895 and 3.3706
- CL/F (Base Model, 10 mg/kg oral gavage): 112 mL/min/kg
- CL/F (Final Model): 119 mL/min/kg
- concentration at 0.5 h (female, GROUP:VD3 Def, SEX:F, OCC 1, time 0.5): 149 ng/mL
- concentration at 1 h (female, GROUP:VD3 Def, SEX:F, OCC 1, time 1): 278 ng/mL
- concentration at 2 h (female, GROUP:VD3 Def, SEX:F, OCC 1, time 2): 435 ng/mL
- concentration at 8 h (female, GROUP:VD3 Def, SEX:F, OCC 1, time 8): 25.2 ng/mL
- concentration at 16 h (female, GROUP:VD3 Def, SEX:F, OCC 1, time 16): 4.02 ng/mL
- concentration at […] (female, GROUP:VD3 Def, SEX:F, OCC 2, time 0.125): 49 ng/mL
- concentration at […] (female, GROUP:VD3 Def, SEX:F, OCC 2, time 0.25): 146 ng/mL
- concentration at 0.5 h (female, GROUP:VD3 Def, SEX:F, OCC 2, time 0.5): 188 ng/mL
- concentration at 16 h (female, GROUP:VD3 Def, SEX:F, OCC 2, time 16): 4.35 ng/mL
- concentration at […] (female, GROUP:VD3 Suf, SEX:F, OCC 1, time 0.25): 167 ng/mL
- concentration at 0.5 h (female, GROUP:VD3 Suf, SEX:F, OCC 1, time 0.5): 231 ng/mL
- concentration at 2 h (female, GROUP:VD3 Suf, SEX:F, OCC 1, time 2): 405 ng/mL
- concentration at 4 h (female, GROUP:VD3 Suf, SEX:F, OCC 1, time 4): 54.1 ng/mL
- concentration at 8 h (female, GROUP:VD3 Suf, SEX:F, OCC 1, time 8): 22 ng/mL
- concentration at 16 h (female, GROUP:VD3 Suf, SEX:F, OCC 1, time 16): 2.06 ng/mL
- concentration at 0.5 h (female, GROUP:VD3 Suf, SEX:F, OCC 2, time 0.5): 137 ng/mL
- concentration at 1 h (female, GROUP:VD3 Suf, SEX:F, OCC 2, time 1): > 500 ng/mL
- concentration at 2 h (female, GROUP:VD3 Suf, SEX:F, OCC 2, time 2): 441 ng/mL
- concentration at 4 h (female, GROUP:VD3 Suf, SEX:F, OCC 2, time 4): 64 ng/mL
- concentration at 16 h (female, GROUP:VD3 Suf, SEX:F, OCC 2, time 16): 8.15 ng/mL
- concentration at […] (male, GROUP:VD3 Def, SEX:M, OCC 1, time 0.25): 145 ng/mL
- concentration at 0.5 h (male, GROUP:VD3 Def, SEX:M, OCC 1, time 0.5): 194 ng/mL
- concentration at 2 h (male, GROUP:VD3 Def, SEX:M, OCC 1, time 2): > 500 ng/mL
- concentration at 4 h (male, GROUP:VD3 Def, SEX:M, OCC 1, time 4): 87.8 ng/mL
- concentration at 8 h (male, GROUP:VD3 Def, SEX:M, OCC 1, time 8): 16.2 ng/mL
- concentration at 24 h (male, GROUP:VD3 Def, SEX:M, OCC 1, time 24): 6.39 ng/mL
- concentration at 0.5 h (male, GROUP:VD3 Def, SEX:M, OCC 2, time 0.5): 178 ng/mL
- concentration at 1 h (male, GROUP:VD3 Def, SEX:M, OCC 2, time 1): > 500 ng/mL
- concentration at 2 h (male, GROUP:VD3 Def, SEX:M, OCC 2, time 2): 287 ng/mL
- concentration at 4 h (male, GROUP:VD3 Def, SEX:M, OCC 2, time 4): 83.2 ng/mL
- concentration at 8 h (male, GROUP:VD3 Def, SEX:M, OCC 2, time 8): 15.5 ng/mL
- concentration at 16 h (male, GROUP:VD3 Def, SEX:M, OCC 2, time 16): 11.1 ng/mL
- concentration at […] (male, GROUP:VD3 Suf, SEX:M, OCC 1, time 0.125): 49.4 ng/mL
- concentration at […] (male, GROUP:VD3 Suf, SEX:M, OCC 1, time 0.25): 110 ng/mL
- concentration at 2 h (male, GROUP:VD3 Suf, SEX:M, OCC 1, time 2): 350 ng/mL
- concentration at 4 h (male, GROUP:VD3 Suf, SEX:M, OCC 1, time 4): 147 ng/mL
- concentration at […] (male, GROUP:VD3 Suf, SEX:M, OCC 2, time 0.25): 107 ng/mL
- concentration at 0.5 h (male, GROUP:VD3 Suf, SEX:M, OCC 2, time 0.5): 316 ng/mL
- concentration at 1 h (male, GROUP:VD3 Suf, SEX:M, OCC 2, time 1): > 500 ng/mL
- concentration at 2 h (male, GROUP:VD3 Suf, SEX:M, OCC 2, time 2): 366 ng/mL
- concentration at 8 h (male, GROUP:VD3 Suf, SEX:M, OCC 2, time 8): 20.4 ng/mL
- concentration at 24 h (male, GROUP:VD3 Suf, SEX:M, OCC 2, time 24): 1.88 ng/mL

Source: PMC8528301 (PLoS ONE, 2021)
